Molecules are shown by their SMILES. pKi: −log10 of the molar value.

A word on the pKi: it is the negative decadic logarithm of the Ki, by convention in mol/L. Read a high pKi as a small Ki.

Sequence of 5-hydroxytryptamine receptor 2A (P14842 whole entry): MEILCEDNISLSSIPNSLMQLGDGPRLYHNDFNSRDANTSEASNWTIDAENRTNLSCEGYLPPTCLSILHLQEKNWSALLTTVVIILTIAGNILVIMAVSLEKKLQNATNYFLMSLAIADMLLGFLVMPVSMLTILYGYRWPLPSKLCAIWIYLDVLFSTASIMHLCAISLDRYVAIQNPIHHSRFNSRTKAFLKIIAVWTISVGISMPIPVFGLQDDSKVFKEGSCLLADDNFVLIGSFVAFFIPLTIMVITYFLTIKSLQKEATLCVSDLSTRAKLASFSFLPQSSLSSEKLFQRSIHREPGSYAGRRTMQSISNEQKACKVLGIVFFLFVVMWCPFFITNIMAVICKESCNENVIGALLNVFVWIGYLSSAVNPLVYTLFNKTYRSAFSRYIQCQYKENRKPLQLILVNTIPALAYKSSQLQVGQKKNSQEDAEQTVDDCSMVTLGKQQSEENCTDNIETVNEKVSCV
Sequence of D(2) dopamine receptor (P61169 whole entry): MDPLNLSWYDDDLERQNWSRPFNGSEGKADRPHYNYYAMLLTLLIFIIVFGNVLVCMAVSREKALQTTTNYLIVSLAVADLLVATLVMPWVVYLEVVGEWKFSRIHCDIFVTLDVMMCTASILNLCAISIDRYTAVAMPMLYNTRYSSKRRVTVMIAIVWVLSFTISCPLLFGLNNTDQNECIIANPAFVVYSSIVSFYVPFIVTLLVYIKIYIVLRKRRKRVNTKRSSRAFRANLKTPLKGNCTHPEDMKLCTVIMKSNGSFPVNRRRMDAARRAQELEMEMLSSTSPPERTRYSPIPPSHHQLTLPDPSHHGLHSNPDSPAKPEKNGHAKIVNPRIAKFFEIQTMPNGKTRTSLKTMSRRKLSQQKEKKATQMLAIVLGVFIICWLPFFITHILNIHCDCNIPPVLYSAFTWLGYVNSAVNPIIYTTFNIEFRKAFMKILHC

The species entered for the first assay is Rattus norvegicus. In words: Selectivity ratio of Ki for rat brain sigma1 receptor to Ki for rat brain sigma2 receptor.
With `Clc1ccccc1N1CCN(CCCc2ccccc2)CC1`, the Ratio Ki came to 0.072.

As to `c1ccc(CCCN2CCN(c3ccccn3)CC2)cc1`, the Ratio Ki was found to be 16.7.

For the compound `Clc1ccc(N2CCN(CCCc3ccccc3)CC2)cc1`, the Ratio Ki was 0.011.

As for `Clc1ccccc1N1CCN(CCc2ccccc2)CC1`, the Ratio Ki worked out at 0.003.

As to `Clc1ccc(N2CCN(CCc3ccccc3)CC2)cc1`, the Ratio Ki stood at 0.056.

For `Clc1cccc(N2CCN(CCc3ccccc3)CC2)c1`, the Ratio Ki worked out at 0.079.

Consider `Clc1cccc(N2CCN(CCCc3ccccc3)CC2)c1`, for which the Ratio Ki was 0.39.

For another assay, the target named is Sodium-dependent serotonin transporter (Rattus norvegicus, UniProt P31652). The assay can be described thus: Displacement of [3H]paroxetine from serotonin transporter in rat brainstem after 120 mins by liquid scintillation counting analysis. In kind it is tissue-based.
Sequence of Sodium-dependent serotonin transporter (P31652 whole entry): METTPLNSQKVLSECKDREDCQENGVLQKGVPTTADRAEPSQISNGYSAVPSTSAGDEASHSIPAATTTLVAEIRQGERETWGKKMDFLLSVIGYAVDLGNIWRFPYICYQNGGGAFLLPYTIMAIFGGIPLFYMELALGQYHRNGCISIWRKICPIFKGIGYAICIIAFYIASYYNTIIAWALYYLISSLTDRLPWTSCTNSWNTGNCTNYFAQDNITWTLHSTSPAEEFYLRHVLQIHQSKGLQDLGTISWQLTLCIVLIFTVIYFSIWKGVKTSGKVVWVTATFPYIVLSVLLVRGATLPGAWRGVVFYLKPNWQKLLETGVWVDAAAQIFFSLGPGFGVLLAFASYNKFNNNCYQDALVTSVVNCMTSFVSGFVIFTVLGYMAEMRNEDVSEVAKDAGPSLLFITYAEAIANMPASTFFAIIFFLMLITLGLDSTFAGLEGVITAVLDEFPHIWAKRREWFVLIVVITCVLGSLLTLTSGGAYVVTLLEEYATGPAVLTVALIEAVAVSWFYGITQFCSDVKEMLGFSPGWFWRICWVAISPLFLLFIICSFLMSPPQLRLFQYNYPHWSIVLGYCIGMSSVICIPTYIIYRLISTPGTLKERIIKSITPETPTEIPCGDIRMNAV
Regarding `Clc1ccccc1N1CCN(CCCc2ccccc2)CC1`, the pKi is 6.39.

In the case of `c1ccc(CCCN2CCN(c3ccccn3)CC2)cc1`, the pKi was < 5.00.

For the compound `Clc1ccc(N2CCN(CCCc3ccccc3)CC2)cc1`, the pKi is 5.96.

As to `Clc1ccccc1N1CCN(CCc2ccccc2)CC1`, the pKi is < 5.00.

With `Clc1ccc(N2CCN(CCc3ccccc3)CC2)cc1`, the pKi is 6.43.

For the compound `Clc1cccc(N2CCN(CCc3ccccc3)CC2)c1`, the pKi is 6.10.

In turn, `Clc1cccc(N2CCN(CCCc3ccccc3)CC2)c1` gave a pKi of 6.31.

Target in a further assay: not listed separately
In words: Displacement of [3H]di-o-tolylguanidine from sigma2 receptor in rat brain after 120 mins by liquid scintillation counting analysis. In kind it is tissue-based.
`Clc1ccccc1N1CCN(CCCc2ccccc2)CC1` showed a pKi of 8.11.

`c1ccc(CCCN2CCN(c3ccccn3)CC2)cc1` gave a pKi of 8.31.

For the compound `Clc1ccc(N2CCN(CCCc3ccccc3)CC2)cc1`, the pKi was 7.96. Compared with the last compound, the pKi is 0.35 log units lower.

Compound `Clc1ccccc1N1CCN(CCc2ccccc2)CC1` had a pKi of 7.25. Against the preceding compound, the pKi is 0.71 log units lower.

As to `Clc1ccc(N2CCN(CCc3ccccc3)CC2)cc1`, the pKi was 7.48.

Consider `Clc1cccc(N2CCN(CCc3ccccc3)CC2)c1`, for which the pKi is 7.08.

`Clc1cccc(N2CCN(CCCc3ccccc3)CC2)c1` showed a pKi of 7.90.

Another assay has as its target D(2) dopamine receptor (Rattus norvegicus, UniProt P61169). In words: Displacement of [3H](-)-sulpiride from dopamine D2 receptor in rat brain after 120 mins by liquid scintillation counting analysis. In kind it is tissue-based.
In turn, `Clc1ccccc1N1CCN(CCCc2ccccc2)CC1` had a pKi of 7.11.

The compound `c1ccc(CCCN2CCN(c3ccccn3)CC2)cc1` had a pKi of 6.03.

Take `Clc1ccc(N2CCN(CCCc3ccccc3)CC2)cc1`: the pKi is 6.18.

With `Clc1ccccc1N1CCN(CCc2ccccc2)CC1`, the pKi was 7.17.

As to `Clc1ccc(N2CCN(CCc3ccccc3)CC2)cc1`, the pKi was 6.08.

The compound `Clc1cccc(N2CCN(CCc3ccccc3)CC2)c1` had a pKi of 6.49.

`Clc1cccc(N2CCN(CCCc3ccccc3)CC2)c1` showed a pKi of 6.89.

The species named for the next assay is Rattus norvegicus. The assay can be described thus: Selectivity ratio of Ki for rat brain sigma1 receptor to Ki for rat striatum dopamine transporter. In kind it is tissue-based.
On to `Clc1ccccc1N1CCN(CCCc2ccccc2)CC1`, for which the Ratio Ki came out at 0.0012.

For `c1ccc(CCCN2CCN(c3ccccn3)CC2)cc1`, the Ratio Ki stood at 0.009.

With `Clc1ccc(N2CCN(CCCc3ccccc3)CC2)cc1`, the Ratio Ki was 4.5e-05.

`Clc1ccccc1N1CCN(CCc2ccccc2)CC1`: the Ratio Ki was determined as 1.15.

With `Clc1ccc(N2CCN(CCc3ccccc3)CC2)cc1`, the Ratio Ki worked out at 0.31.

Take `Clc1cccc(N2CCN(CCc3ccccc3)CC2)c1`: the Ratio Ki is 162.

The target in another assay is Sodium-dependent dopamine transporter (Rattus norvegicus, UniProt P23977). The assay can be described thus: Displacement of [3H]WIN 35428 from dopamine transporter in rat striatum after 120 mins by liquid scintillation counting analysis. In general terms: In a radioligand displacement assay an active substance lowers the binding of a labelled ligand.
Sequence of Sodium-dependent dopamine transporter (P23977 whole entry): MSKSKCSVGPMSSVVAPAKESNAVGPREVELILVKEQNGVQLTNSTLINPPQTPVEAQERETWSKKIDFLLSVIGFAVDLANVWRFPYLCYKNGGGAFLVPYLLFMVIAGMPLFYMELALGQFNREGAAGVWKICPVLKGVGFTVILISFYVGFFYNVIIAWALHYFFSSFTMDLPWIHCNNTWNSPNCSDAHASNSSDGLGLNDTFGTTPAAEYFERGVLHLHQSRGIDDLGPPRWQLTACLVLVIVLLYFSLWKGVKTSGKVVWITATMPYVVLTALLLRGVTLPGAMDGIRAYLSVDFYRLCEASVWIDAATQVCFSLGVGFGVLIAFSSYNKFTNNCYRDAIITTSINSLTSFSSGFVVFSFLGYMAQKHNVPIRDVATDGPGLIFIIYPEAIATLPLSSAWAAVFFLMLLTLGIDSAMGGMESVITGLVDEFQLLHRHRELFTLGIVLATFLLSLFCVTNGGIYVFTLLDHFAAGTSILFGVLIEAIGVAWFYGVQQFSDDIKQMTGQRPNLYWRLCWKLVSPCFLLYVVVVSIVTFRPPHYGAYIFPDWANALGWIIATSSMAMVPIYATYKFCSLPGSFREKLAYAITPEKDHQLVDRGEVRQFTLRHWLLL
`Clc1ccccc1N1CCN(CCCc2ccccc2)CC1` gave a pKi of 6.32.

For `c1ccc(CCCN2CCN(c3ccccn3)CC2)cc1`, the pKi is 5.04.

`Clc1ccc(N2CCN(CCCc3ccccc3)CC2)cc1` gave a pKi of 5.58.

Turning to `Clc1ccccc1N1CCN(CCc2ccccc2)CC1`, the pKi is 9.89.

With `Clc1ccc(N2CCN(CCc3ccccc3)CC2)cc1`, the pKi is 8.22. This pKi is 1.67 log units lower than that of the compound before.

With `Clc1cccc(N2CCN(CCc3ccccc3)CC2)c1`, the pKi is 10.40.

On to `Clc1cccc(N2CCN(CCCc3ccccc3)CC2)c1`, for which the pKi was < 5.00.

Target in the next assay: not listed separately
In words: Binding affinity to rat opioid receptor after 120 mins by radioligand displacement assay.
In turn, `Clc1ccccc1N1CCN(CCCc2ccccc2)CC1` gave a pKi of 5.34.

In the case of `c1ccc(CCCN2CCN(c3ccccn3)CC2)cc1`, the negative-log Ki (pKi) was < 5.00.

In the case of `Clc1ccc(N2CCN(CCCc3ccccc3)CC2)cc1`, the pKi was < 5.00.

For `Clc1ccccc1N1CCN(CCc2ccccc2)CC1`, the pKi is 5.32.

`Clc1ccc(N2CCN(CCc3ccccc3)CC2)cc1`: the pKi was < 5.00.

For `Clc1cccc(N2CCN(CCc3ccccc3)CC2)c1`, the pKi is < 5.00.

`Clc1cccc(N2CCN(CCCc3ccccc3)CC2)c1`: the pKi is < 5.00.

Another assay addresses 5-hydroxytryptamine receptor 2A (Rattus norvegicus, UniProt P14842). In words: Displacement of [3H]ketanserin from 5-HT2 receptor in rat brain after 120 mins by liquid scintillation counting analysis. It counts as tissue-based.
In turn, `Clc1ccccc1N1CCN(CCCc2ccccc2)CC1` showed a pKi of 6.02.

Turning to `c1ccc(CCCN2CCN(c3ccccn3)CC2)cc1`, the pKi is 5.91.

Consider `Clc1ccc(N2CCN(CCCc3ccccc3)CC2)cc1`, for which the pKi is 6.41.

In the case of `Clc1ccccc1N1CCN(CCc2ccccc2)CC1`, the pKi is 6.32. This pKi and that of the compound before are within 0.2 log units of each other.

For `Clc1ccc(N2CCN(CCc3ccccc3)CC2)cc1`, the pKi is 6.29. The pKi values of the last two compounds are within 0.2 log units of each other.

As for `Clc1cccc(N2CCN(CCc3ccccc3)CC2)c1`, the pKi is 7.28.

As for `Clc1cccc(N2CCN(CCCc3ccccc3)CC2)c1`, the pKi was 6.30. Against the preceding compound, the pKi is 0.98 log units lower.

In another assay the target is Sigma non-opioid intracellular receptor 1 (Rattus norvegicus, UniProt Q9R0C9). In words: Displacement of [3H](+)-pentazocine from sigma1 receptor in rat brain after 120 mins by liquid scintillation counting analysis. In kind it is tissue-based.
Sequence of Sigma non-opioid intracellular receptor 1 (Q9R0C9 whole entry): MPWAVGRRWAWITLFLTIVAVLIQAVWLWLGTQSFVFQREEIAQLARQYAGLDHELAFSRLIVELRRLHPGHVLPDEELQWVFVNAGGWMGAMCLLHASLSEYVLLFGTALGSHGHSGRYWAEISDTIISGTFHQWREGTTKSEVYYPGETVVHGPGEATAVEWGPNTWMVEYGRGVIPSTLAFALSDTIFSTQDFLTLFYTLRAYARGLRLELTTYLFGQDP
As for `Clc1ccccc1N1CCN(CCCc2ccccc2)CC1`, the pKi is 9.25.

In turn, `Clc1ccc(N2CCN(CCCc3ccccc3)CC2)cc1` showed a pKi of 9.92. Against the preceding compound, the pKi is 0.67 log units higher.

Take `Clc1ccccc1N1CCN(CCc2ccccc2)CC1`: the pKi is 9.82.

For the compound `Clc1ccc(N2CCN(CCc3ccccc3)CC2)cc1`, the pKi was 8.73.

Regarding `Clc1cccc(N2CCN(CCc3ccccc3)CC2)c1`, the pKi was 8.19. This pKi is 0.54 log units lower than that of the compound before.

Regarding `Clc1cccc(N2CCN(CCCc3ccccc3)CC2)c1`, the pKi is 8.31. The pKi values of the last two compounds are within 0.2 log units of each other.

Target in the next assay: not listed separately
The assay can be described thus: Displacement of [3H]TCP from N-methyl D-aspartate receptor phencyclidine binding site in rat brain after 120 mins by liquid scintillation counting analysis. It counts as tissue-based.
Take `Clc1ccccc1N1CCN(CCCc2ccccc2)CC1`: the pKi was < 5.00.

Regarding `c1ccc(CCCN2CCN(c3ccccn3)CC2)cc1`, the pKi was < 5.00.

Consider `Clc1ccc(N2CCN(CCCc3ccccc3)CC2)cc1`, for which the pKi is < 5.00.

`Clc1ccccc1N1CCN(CCc2ccccc2)CC1`: the pKi was < 5.00.

As for `Clc1ccc(N2CCN(CCc3ccccc3)CC2)cc1`, the pKi is < 5.00.

Turning to `Clc1cccc(N2CCN(CCc3ccccc3)CC2)c1`, the pKi was < 5.00.

For the compound `Clc1cccc(N2CCN(CCCc3ccccc3)CC2)c1`, the pKi was < 5.00.

Target in the next assay: not listed separately
The assay can be described thus: Displacement of [3H]nisoxetine from norepinephrine transporter in rat cerebral cortex after 120 mins by liquid scintillation counting analysis. In kind it is tissue-based.
As for `Clc1ccccc1N1CCN(CCCc2ccccc2)CC1`, the pKi was < 5.00.

In the case of `c1ccc(CCCN2CCN(c3ccccn3)CC2)cc1`, the pKi is < 5.00.

As to `Clc1ccc(N2CCN(CCCc3ccccc3)CC2)cc1`, the pKi was < 5.00.

Regarding `Clc1ccccc1N1CCN(CCc2ccccc2)CC1`, the pKi is 6.10.

Regarding `Clc1ccc(N2CCN(CCc3ccccc3)CC2)cc1`, the pKi was < 5.00.

Take `Clc1cccc(N2CCN(CCc3ccccc3)CC2)c1`: the pKi was 5.96.

As for `Clc1cccc(N2CCN(CCCc3ccccc3)CC2)c1`, the pKi is < 5.00.

(Values after ChEMBL document CHEMBL3091341, “Chlorophenylpiperazine analogues as high affinity dopamine transporter ligands” (Bioorg Med Chem Lett, 2013).)
